Measurements: patent publication US11306074B2, “Chemical and method for analyzing DNA sequence by visualizing single-molecule DNA and use thereof” (SOGANG UNIVERSITY RESEARCH FOUNDATION, priority 2018, dated 2022)

How the values were obtained:
λ DNA = conditions: for staining / visualization of λ DNA molecules: λ DNA (48.5 kbp) tethered, 1×TE flow 100 μL/minute, 70 μM dye solution mixed 1:1, 20-fold diluted, FIGS. 2a-2c
Method: An inverted microscope (Olympus IX70, Tokyo, Japan) with 60× Olympus UPlanSApo oil immersion objectives illuminated with an LED light source (SOLA SM II light engine, Lumencor, Beaverton, Oreg., USA) was used. The light was passed through corresponding filter sets (Semrock, Rochester, N.Y., USA) to set the excitation and emission wavelengths. A maximum light intensity of 140 mW/cm^2 was measured. Fluorescence microscopic images were taken with an electron-multiplying charge-coupled device digital camera (Evolve EMCCD, Roper Scientific, Tucson, Ariz., USA) and stored in a 16-bit TIFF format using the software Micro-manager. For image processing and analysis, ImageJ software with Java plug-ins and python programs developed by the present inventors were utilized.
First, λ DNA (NCBI: NC_001416.1) was diluted to a concentration of 5 ng/μL (0.16 nM; base pair 7.76 μM) in 1×TE (10 mM Tris, 1 mM EDTA, pH 8.0) and mixed at a volume ratio of 1:1 with 70 μM of the Preparation Example solution. Next, the mixture was incubated at room temperature for 15 min and 20-fold diluted with 4% […] (β-ME) in 1×TE.
Separately, a flow chamber (5×10×0.1 mm (L×W×H)) was prepared by placing an acrylic support on an acid-cleaned cover slip, with the walls formed by double-sided tape, An NE-1000 syringe pump (New Era Pump Systems Inc., Wantagh, N.Y.) was used to control the buffer.
Thereafter, 40 μg/mL biotinylated bovine serum albumin (BSA) was injected and incubated at room temperature for 10 min, after which a dilution of 20 μg/mL Neutravidin in T50 solution (10 mM Tris, […], pH 8.0) was injected to the flow chamber and incubated at room temperature for 10 min.
Then, 1 μM of λ DNA overhang oligo (5′-p-[…]-Triethyleneglycol-biotin-3′) was loaded into the flow chamber and maintained at room temperature for 10 minutes. λ DNA, 200 U of T4 DNA ligase, and reaction buffer were added and incubated at room temperature for 30 minutes.
Stained DNA molecules were visualized under a continuous flow of 1×TE (100 μl/minute).

[1] = test system: polytene chromosomes from the Drosophila melanogaster salivary gland; conditions: 2.5 μM in 4% β-ME; tangled and spread polytene chromosomes; FIG. 5a
Source text: For comparison with DAPI, which is conventionally used to visualize polytene chromosomes on a fluorescence microscope, the polytene chromosomes from the Drosophila melanogaster salivary gland were stained with the compound.
In brief, dissected salivary glands from third larvae of Drosophila melanogaster were fixed with a solution containing a 1:2:3 ratio of propionic acid, deionized water, and acetic acid on a positively charged coverslip. Then, the cells were located between a slide glass and the coverslip and then the individual cells were gently spread. After moving the coverslip back and forth on the slide glass, the spread cells were squashed for up to 15 minutes. Then, the slide glass and coverslip were slightly dipped into liquid nitrogen. Just after no more bubbles were generated, the cover slip was removed from the slide glass.

Source text for λ DNA genome: Python Program • ImageCompare.py: a library of functions, • seq2map.py: to convert a FASTA file into a A/T frequency in silico map wherein a selected sequence is represented in white for high frequency regions and in black for low frequency regions. • insilicoMapFolder.py: to scan and compare in silico image files and DNA images obtained through experiments with respect to all images in the folder, to search positions of sites having the highest cross-correlation coefficient, to convert the values, and to store the values in new record files. • sortView.py: to read record files obtained with the insilicoMapFolder.py, to compare signals, to search cross-correlation coefficients, and to visualize image comparison in a new window. • randomtiff.py: to generate random intensity tiff images
Cross-correlation (cc) coefficient values calculated by comparing the alignment of 20 molecular images of above three kinds of binding sequences (W, W4 and W9) with the genome. The control cross-correlation coefficient (hereinafter referred to as cc) was obtained by comparing the 100 computer-generated random sequences with the in silico images (***P<0.0001 for random-sequences paired t-test).

Compound | staining / visualization of λ DNA molecules (λ DNA) | cross-correlation coefficient (cc) of 20 molecular images aligned with λ DNA genome (λ DNA genome; W, W4, W9 maps, Python program, FIG. 3b) | agreement of measured fluorescence intensity with in silico binding sequence profiles (W, W4, W9) (λ DNA genome; λ genome, FIG. 3a) | staining of polytene chromosomal DNA [1] | fluorescent λ DNA image quality compared with DAPI (λ DNA; λ DNA images, FIG. 5b)
CN(C)CCCNC(=O)c1cc(NC(=O)c2cc(NC(=O)c3cc(NC(=O)c4cc(NC(=O)CCNC(=O)CCNC(=O)c5ccc(C(=O)[O-])c(-c6c7ccc(=[N+](C)C)cc-7oc7cc(N(C)C)ccc67)c5)cn4C)cn3C)cn2C)cn1C [Comparative Example 1, (5-carboxytetramethylrhodamine)-(β-alanine)2-(N-methylpyrrole)4-(3-(dimethylamino)propylamine), reference compound] | stained only in part AT-rich regions and bound undesired regions | – | – | – | –
CN(C)CCCNC(=O)c1cc(NC(=O)c2cc(NC(=O)c3cc(NC(=O)c4cc(NC(=O)CCNC(=O)c5cc(NC(=O)c6cc(NC(=O)c7cc(NC(=O)c8cc(NC(=O)CCNC(=O)CCNC(=O)c9ccc(-c%10c%11ccc(=[N+](C)C)cc-%11oc%11cc(N(C)C)ccc%10%11)c(C(=O)[O-])c9)cn8C)cn7C)cn6C)cn5C)cn4C)cn3C)cn2C)cn1C [Preparation Example, (5-carboxytetramethylrhodamine)-(β-alanine)2-(N-methylpyrrole)4-(β-alanine)-(N-methylpyrrole)4-(3-(dimethylamino)propylamine)] | visualized λ DNA molecules with sequence specificity as well as enhancing the intensity of the molecules | highest cc value for simple A/T frequency | agrees better with simple A/T frequency than W4 and W9 | clearly demonstrate band and interband patterns | exhibits a clear backbone compared with DAPI-stained DNA
(5-carboxytetramethylrhodamine)-(β-alanine)2-(N-methylpyrrole)4-(5-carboxytetramethylrhodamine) [Comparative Example 2, reference compound] | did not bind double-stranded DNA at all | – | – | – | –
